# Laboratory results reported in US5969115A, “Bisazo dyes and their preparation and use” (Ilford Imaging Switzerland GMBH, priority 1997, dated 1999).
# What was measured:
# Format in all cases: physicochemical
# [1] = Absorption maximum in water
# Source text: The absorption maxima and the results of the tests (B) to (D) are listed in Table 6 for the dyes of the invention and in Table 7 for the dyes that are state of the art.
# [2] = Light fastness of printed samples (density loss after xenon lamp irradiation); settings: for Density loss in %: xenon lamp, total illumination 20 kJoule/cm^2; for light fastness: printed samples, in words
# Description: (§1) The present invention, as far as it relates to inks, is further illustrated by the following examples using dyes according to our invention described in Tables 1 and 2 and dyes representing the state of the art described in Tables 3 and 4. 100 g of each ink were prepared by heating the necessary amount of dye (3-7 g), glycerol (5 g), tetraethylenglycol (1.1 g). and a biocide solution (Promexal X50, available from Zeneca, Manchester, England) (1.2 g) together with water at a temperature of 50° C. under stirring for one hour. The resulting solution was cooled down to 20° C., pH was adjusted to 7.5 and passed through a Millipore® filter of 0.5 μm pore diameter. The dye quantity was adjusted in a way that the density of the printed images was the same for all dyes.
# (§2) 30 g of gelatin with a high isoelectric point (type St 70,810, available from Deutsche Gelatinefabriken, Eberbach, Germany) were dissolved in 360 ml of deionised water. 1 g of a surfactant (Olin 10G, available from Olin Corporation, Norwalk, USA) were added to this solution. Immediately before coating 6.6 g of a solution of 2-(4-dimethyl-carbamoyl-pyridino)-ethanesulfonate (3%) were added and pH was adjusted to 6.5. 100 g/m^2 of this solution was then coated onto a resin coated paper support using a bar coater. The recording medium prepared in this way was dried for 12 hours.
# (§3) The inks were then jetted onto this recording medium with an HP560 ink jet printer from Hewlett-Packard. The properties of the printed samples were evaluated later on.
# The printed samples were irradiated in an Atlas Ci35A Weather-O-Meter® with a r 6500 W Xenon lamp until a total illumination of 20 kJoule/cm^2 was reached. The density loss was measured with an X-Rite® densitometer. It is expressed as % loss of initial density.
# [3] = Color co-ordinates (L*a*b*) of printed samples; settings: for neutral black (color co-ordinates): in words
# Description: as §1, §2, §3
# L*a*b*-values were measured on printed samples using a Gretag SPM 100 spectrometer, available from Gretag AG, Regensdorf, Switzerland.
# Black dyes show a neutral hue if the values of a* and b*out of the L*a*b* color co-ordinates are zero.
# [4] = Dye solubility in deionised water; settings: for Solubility: deionised water, stirred 1 hour at 50° C., cooled to 20° C., Table 5
# Description: The dye was dispersed in deionised water and this dispersion was stirred for 1 hour at 50° C. Then the mixture was cooled down to 20° C., centrifuged and filtered. Dye solubility was calculated a) from visible spectral data of the filtered solution or b) based on the dried filter residue.
HD max in water ([1]; Table 6) [nm],Density loss in % ([2]; Table 6) [%],L*a*b*-value: L* ([3]; Table 6),L*a*b*-value: a* ([3]; Table 6),L*a*b*-value: b* ([3]; Table 6),SMILES,also measured
582,–,–,–,–,O=S(=O)(O)CCNc1ccc2cc(S(=O)(=O)O)c(N=Nc3ccc(N=Nc4cccc(CO)c4)c4ccc(S(=O)(=O)O)cc34)c(O)c2c1 [Compound 1],"HD max in water (second maximum) ([1]; second value of the cell, Table 6): 440 nm"
573,0,2.1,2.0,0.3,O=C(O)c1cccc(N=Nc2ccc(N=Nc3c(S(=O)(=O)O)cc4ccc(NCCS(=O)(=O)O)cc4c3O)c3cc(S(=O)(=O)O)ccc23)c1 [Compound 2],–
575,5,4.3,2.5,-2.5,O=S(=O)(O)CCNc1ccc2cc(S(=O)(=O)O)c(N=Nc3ccc(N=Nc4ccc(S(=O)(=O)O)cc4)c4ccc(S(=O)(=O)O)cc34)c(O)c2c1 [Compound 3],Solubility [4]: > 20 g per 100 ml; solubility compared with previously known dyes 24 and 26 ([4]; in words): considerably higher solubility
577,7,8.9,14.4,-7.5,O=S(=O)(O)CCNc1ccc2cc(S(=O)(=O)O)c(N=Nc3ccc(N=Nc4ccc(S(=O)(=O)O)cc4)c4cc(S(=O)(=O)O)ccc34)c(O)c2c1 [Compound 4],–
576,6,7.3,2.0,-2.4,O=S(=O)(O)CCNc1ccc2cc(S(=O)(=O)O)c(N=Nc3ccc(N=Nc4ccc(S(=O)(=O)O)cc4)c4ccc(S(=O)(=O)O)cc34)c(O)c2c1 [Compound 5],Solubility [4]: 16 g per 100 ml; light fastness [2]: excellent light fastness; neutral black (color co-ordinates) [3]: neutral blacks
573,8,7.5,14.6,-6.4,O=S(=O)(O)CCNc1ccc2cc(S(=O)(=O)O)c(N=Nc3ccc(N=Nc4cccc(S(=O)(=O)O)c4)c4cc(S(=O)(=O)O)ccc34)c(O)c2c1 [Compound 6],–
576,1,15.5,5.2,-5.9,O=C(O)Cc1ccc(N=Nc2ccc(N=Nc3c(S(=O)(=O)O)cc4ccc(NCCS(=O)(=O)O)cc4c3O)c3cc(S(=O)(=O)O)ccc23)cc1 [Compound 7],light fastness [2]: excellent light fastness; neutral black (color co-ordinates) [3]: neutral blacks
575,14,22.9,11.0,-5.2,O=S(=O)(O)CCNc1ccc2cc(S(=O)(=O)O)c(N=Nc3ccc(N=Nc4ccc(CS(=O)(=O)O)cc4)c4cc(S(=O)(=O)O)ccc34)c(O)c2c1 [Compound 9],–
578,13,2.0,1.5,0.1,O=P(O)(O)Cc1ccc(N=Nc2ccc(N=Nc3c(S(=O)(=O)O)cc4ccc(NCCS(=O)(=O)O)cc4c3O)c3cc(S(=O)(=O)O)ccc23)cc1 [Compound 10],–
577,11,18.3,4.2,-3.1,O=S(=O)(O)CCNc1ccc2cc(S(=O)(=O)O)c(N=Nc3ccc(N=Nc4ccc(CCO)cc4)c4ccc(S(=O)(=O)O)cc34)c(O)c2c1 [Compound 11],–
576,4,12.1,3.8,-3.1,O=C(O)CCc1ccc(N=Nc2ccc(N=Nc3c(S(=O)(=O)O)cc4ccc(NCCS(=O)(=O)O)cc4c3O)c3cc(S(=O)(=O)O)ccc23)cc1 [Compound 12],light fastness [2]: excellent light fastness; neutral black (color co-ordinates) [3]: neutral blacks
575,4,–,–,–,O=C(O)CCc1cccc(N=Nc2ccc(N=Nc3c(S(=O)(=O)O)cc4ccc(NCCS(=O)(=O)O)cc4c3O)c3cc(S(=O)(=O)O)ccc23)c1 [Compound 13],–
576,2,19.5,7.5,2.4,O=C(O)CCC(NC(=O)c1ccc(N=Nc2ccc(N=Nc3c(S(=O)(=O)O)cc4ccc(NCCS(=O)(=O)O)cc4c3O)c3cc(S(=O)(=O)O)ccc23)cc1)C(=O)O (centres unmarked) [Compound 14],–
590,8,4.7,4.5,-1.7,O=C(O)c1ccc(N=Nc2ccc(N=Nc3c(S(=O)(=O)O)cc4ccc(NCCS(=O)(=O)O)cc4c3O)c3cc(S(=O)(=O)O)ccc23)cc1Cl [Compound 15],light fastness [2]: excellent light fastness; neutral black (color co-ordinates) [3]: neutral blacks
568,2,5.7,2.6,2.3,O=C(O)c1cc(N=Nc2ccc(N=Nc3c(S(=O)(=O)O)cc4ccc(NCCS(=O)(=O)O)cc4c3O)c3ccc(S(=O)(=O)O)cc23)cc(C(=O)O)c1 [Compound 17],–
553,5,3.5,4.4,0.3,O=S(=O)(O)CCNc1ccc2cc(S(=O)(=O)O)c(N=Nc3ccc(N=Nc4cc(Cl)c(S(=O)(=O)O)cc4Cl)c4ccc(S(=O)(=O)O)cc34)c(O)c2c1 [Compound 18],light fastness [2]: excellent light fastness; neutral black (color co-ordinates) [3]: neutral blacks
581,1,–,–,–,O=S(=O)(O)CCNc1ccc2cc(S(=O)(=O)O)c(N=Nc3ccc(N=Nc4cc(S(=O)(=O)O)c5cccc(S(=O)(=O)O)c5c4)c4ccc(S(=O)(=O)O)cc34)c(O)c2c1 [Compound 19],–
582,3,9.4,3.8,-3.6,O=S(=O)(O)CCNc1ccc2cc(S(=O)(=O)O)c(N=Nc3ccc(N=Nc4ccc5c(S(=O)(=O)O)cc(S(=O)(=O)O)cc5c4)c4ccc(S(=O)(=O)O)cc34)c(O)c2c1 [Compound 20],light fastness [2]: excellent light fastness; neutral black (color co-ordinates) [3]: neutral blacks
–,–,–,–,–,"Nc1ccc2cc(S(=O)(=O)O)c(N=Nc3ccc(N=Nc4cccc(C(=O)O)c4)c4ccc(S(=O)(=O)O)cc34)c(O)c2c1 [Compound 23, reference compound]","HD max in water ([1]; state of the art dyes, Table 7): 570 nm; Density loss in % ([2]; state of the art dyes, Table 7): 2%"
–,–,–,–,–,"Nc1ccc2cc(S(=O)(=O)O)c(N=Nc3ccc(N=Nc4cc(C(=O)O)cc(C(=O)O)c4)c4ccc(S(=O)(=O)O)cc34)c(O)c2c1 [Compound 24, reference compound]","HD max in water ([1]; state of the art dyes, Table 7): 571 nm; Solubility [4]: 12 g per 100 ml; L*a*b*-value: L* ([3]; state of the art dyes, Table 7): 27.0; L*a*b*-value: a* ([3]; state of the art dyes, Table 7): -0.7; L*a*b*-value: b* ([3]; state of the art dyes, Table 7): -8.8"
–,–,–,–,–,"Nc1ccc2cc(S(=O)(=O)O)c(N=Nc3ccc(N=Nc4cc(C(=O)O)cc(C(=O)O)c4)c4cc(S(=O)(=O)O)ccc34)c(O)c2c1 [Compound 25, reference compound]","HD max in water ([1]; state of the art dyes, Table 7): 556 nm; Density loss in % ([2]; state of the art dyes, Table 7): 2%; L*a*b*-value: L* ([3]; state of the art dyes, Table 7): 10.6; L*a*b*-value: a* ([3]; state of the art dyes, Table 7): 11.7; L*a*b*-value: b* ([3]; state of the art dyes, Table 7): -0.6"
–,–,–,–,–,"O=C(O)CCNc1ccc2cc(S(=O)(=O)O)c(N=Nc3ccc(N=Nc4ccc(C(=O)O)cc4)c4ccc(S(=O)(=O)O)cc34)c(O)c2c1 [Compound 27, reference compound]","HD max in water ([1]; state of the art dyes, Table 7): 564 nm; Density loss in % ([2]; state of the art dyes, Table 7): 12%; L*a*b*-value: L* ([3]; state of the art dyes, Table 7): 23.7; L*a*b*-value: a* ([3]; state of the art dyes, Table 7): 15.1; L*a*b*-value: b* ([3]; state of the art dyes, Table 7): -16.6"
–,–,–,–,–,"Nc1ccc2cc(S(=O)(=O)O)cc(O)c2c1N=Nc1ccc(N=Nc2ccc(O)c(C(=O)O)c2)c2ccc(S(=O)(=O)O)cc12 [Compound 28, reference compound]","L*a*b*-value: L* ([3]; state of the art dyes, Table 7): 18.8; L*a*b*-value: a* ([3]; state of the art dyes, Table 7): 18.1; L*a*b*-value: b* ([3]; state of the art dyes, Table 7): -4.1"
